Source: ChEMBL document CHEMBL3507680, “University of Dundee, Gates Library screen for HepG2 cell viability”

Assay: Human HepG2 cell viability assay in 384 well format
Assay type: toxicity, cell-based
Design: dose 125 nL, time 70.5 hour; cytotoxicity at 70.5 h: concentration not given beside the values
Settings: HepG2 cells, read-out: Inhibition

Compound | cytotoxicity at 70.5 h
CN(Cc1ccco1)C(=O)c1cccc(N2CCCC2=O)c1 | -8.03%
CC(Cn1ccnc1)NC(=O)NCCc1ccc(Cl)s1 (stereo not drawn) | -4.32%
Cn1cc(C2CCCN2C(=O)COCCc2ccccc2)cn1 (stereo not drawn) | -8.67%
CCc1nc2n(n1)CC(NCC(=O)Nc1cc(C)nn1C)CC2 (stereo not drawn) | -6.14%
CC(C)c1noc(CCCC(=O)N2CCN(Cc3ccccn3)CC2)n1 | -11.6%
CC(C)c1noc(CCCC(=O)N2CCN(Cc3ccsc3)CC2)n1 | -6.21%
Cc1nc(CCNC(=O)NC(C)Cn2cccn2)cs1 (stereo not drawn) | -12.8%
Cn1cc(NS(=O)(=O)c2ccc(C(F)(F)F)cc2)ccc1=O | -9.18%
CCCc1ccc(S(=O)(=O)Nc2ccc(=O)n(C)c2)cc1 | 22.8%
Cn1ncc2c(=O)[nH]c(CN3CCCC3c3cccc(F)c3)nc21 (stereo not drawn) | -7.63%
Cn1ncc2c(=O)[nH]c(CN3CCc4sccc4C3)nc21 | 13.1%
CCc1nc(CN2CCN(C(=O)C3(C#N)CCCC3)CC2)cs1 | -2.5%
CCn1cnnc1C1CCN(C(=O)c2cnc(C)s2)CC1 | -12.3%
Cn1cc(C2CCCN2C(=O)CCCOc2ccc(F)cc2)cn1 (stereo not drawn) | 15.6%
Cn1cc(C2CCCN2C(=O)COCCOc2ccccc2)cn1 (stereo not drawn) | -4.67%
CN(C)c1cc2c(nn1)CCN(C(=O)C1Cc3ccccc3O1)C2 (stereo not drawn) | 8.33%
COc1ncccc1CNC(=O)N(Cc1ccc(F)cc1F)C1CC1 | -12.4%
CCc1ccc(C(=O)N2CCC(c3nncn3CC)CC2)s1 | -7.92%
Cn1cnnc1C1CCN(C(=O)c2cc3c(s2)CCCC3)CC1 | 14.6%
CN(Cc1nccn1C)C1CCCN(Cc2noc(C3CC3)n2)C1 (stereo not drawn) | 15.8%
CCc1cnc(CN(C)C2CCN(CC(=O)Nc3cc(C)on3)C2)o1 (stereo not drawn) | 11.1%
CCC(O)CN1CCN(C(=O)c2ccc3c(c2)COC3)CC1 (stereo not drawn) | 14.3%
OC(COCc1ccccc1)CN1CCC(c2ccn[nH]2)CC1 (stereo not drawn) | 19.6%
CN(CC(=O)N1CCCCC1Cn1cccn1)C1CC1 (stereo not drawn) | 4.49%

Compound | cytotoxicity at 70.5 h
Cn1ccnc1CN1CCN(Cc2noc(C3CC3)n2)CC1 | -12.6%
CC(C(=O)NCCOc1ccc(F)cc1)n1cncn1 (stereo not drawn) | -14.7%
O=C(NCc1ccccn1)C1=NN(c2ccccc2)C(=O)CN1 | -16.4%
CCCc1noc(CCC(=O)N2CCCC2c2ccc(OC)cc2)n1 (stereo not drawn) | -16.8%
OC(COc1ccc(F)cc1)CN1CCC(c2ccn[nH]2)CC1 (stereo not drawn) | -9.19%
Cc1nc(-c2ccco2)ccc1C(=O)N1CCn2c(C)nnc2C1 | -17.1%
CCN1CCN(C2CCN(CC(=O)NCC(F)(F)F)CC2)C1=O | -6.43%
Cc1cnn(CCNCC(O)COc2c(Cl)cccc2Cl)c1 (stereo not drawn) | -4.22%
Cc1noc(C)c1C(=O)N1CCCC1c1c(C)nn(C)c1C (stereo not drawn) | -8.88%
Cc1nn(C)c(Cl)c1C1CCCN1Cc1cccc(C(N)=O)c1 (stereo not drawn) | -10.9%
c1coc(-c2noc(CN3CCCCC3Cn3cncn3)n2)c1 (stereo not drawn) | 5.99%
CCn1ncc2c1CCCC2NCc1cc(OC)cc(OC)c1 (stereo not drawn) | -9.39%
CCc1noc(CN2CCN(C(=O)N(CC)CC)CC2)n1 | -10%
Cc1cccc(OCC(O)CN2CCC(c3ccn[nH]3)CC2)c1 (stereo not drawn) | -0.803%
CCCc1noc(CCCC(=O)N2CCCC2c2cnn(C)c2)n1 (stereo not drawn) | -8.23%
O=C(c1ccc2c(c1)COC2)N1CCN(CCO)CC1 | -3.79%
CCn1ncc2c1CCCC2NCc1ccc(OC)c(F)c1 (stereo not drawn) | -9.63%
COCCNC(=O)CN1CCC(N2CCN(C)C2=O)CC1 | -13.2%
OC(COCc1ccccc1Cl)CN1CCC(c2ccn[nH]2)CC1 (stereo not drawn) | 1.38%
CN(C)CC1CN(Cc2ccc(-n3cccn3)cc2)CCO1 (stereo not drawn) | 0.969%
O=C(CN1CCCC1Cn1cccn1)NCCC1=CCCCC1 (stereo not drawn) | -9.89%
CCc1ccsc1C(=O)N1CCCN(Cc2cnn(CC)c2)CC1 | 7.56%
CNC(=O)CCS(=O)(=O)Cc1cc(Cl)c2c(c1)OCCO2 | -3.97%
CC(=O)c1ccc(S(=O)(=O)NCc2cccnc2N(C)C)cc1 | -3.14%

Compound | cytotoxicity at 70.5 h
COC(=O)c1cccc(S(=O)(=O)NCc2cccnc2N(C)C)c1 | -2.85%
O=C(CN1CCC(c2ccnn2CCO)CC1)NCC1CCCCC1 | -3.43%
COc1c(C)cnc(CN2CCOC(Cn3nc(C)cc3C)C2)c1C (stereo not drawn) | -2.15%
CCOc1ccnc(N2CCN(C(=O)c3ccoc3C)CC2)n1 | -3.63%
Nc1cc2c(nn1)CCN(C(=O)CCC1CCCCC1)C2 | -11.1%
Nc1cc2c(nn1)CCN(C(=O)CCCC1CCCCC1)C2 | -13.1%
O=C(NCc1ccc(-c2ccn[nH]2)cc1)N1CCC(N2CCCC2)C1 (stereo not drawn) | -5.88%
Cc1nnc(CN2CCN(CCOc3ccccc3C#N)CC2)n1C | 7.15%
CCc1ncc2c(n1)CN(Cc1nc(-c3ccsc3)oc1C)CC2 | 1.83%
O=C(CCOc1ccccc1)N1CCC(Nc2cccnn2)CC1 | 1.59%
O=C(c1ccsc1)N1CCCC(c2cc(C(F)(F)F)[nH]n2)C1 (stereo not drawn) | 11.1%
O=C(c1ccc(Cl)o1)N1CCCC(c2cc(C(F)(F)F)[nH]n2)C1 (stereo not drawn) | -3.16%
O=C(c1ccc[nH]1)N1CCCC(c2cc(C(F)(F)F)[nH]n2)C1 (stereo not drawn) | -0.878%
CC(C)(C)c1ncc(C(=O)NCCS(N)(=O)=O)s1 | -1.37%
CSc1nccn1-c1cccc(C(=O)NCC2CC2)c1 | 0.766%
O=C(NCc1cc[nH]n1)N1CCCCC(N2CCCC2)C1 (stereo not drawn) | -0.0102%
COc1cc(C)ccc1OCCC(=O)N1CCCC1Cn1cccn1 (stereo not drawn) | -3.24%
Cn1ccnc1CN1CCCN(C(=O)c2ccc(Cl)o2)CC1 | -8.18%
Cc1cc(NC(=O)CN2CCc3cnc(C)nc3C2)on1 | 35.8%
O=C(NCCN1CCCc2ccccc21)c1scnc1Cl | 10.6%
CCc1cnc(CN(C(C)=O)C2CCN(CCc3cccs3)C2)o1 (stereo not drawn) | 8.24%
CC(C)N1CC(C(=O)NCCOc2ccc3c(c2)OCO3)CC1=O (stereo not drawn) | 1.18%
COc1ccc(C2=CCN(C(=O)C3CCCN(C(N)=O)C3)CC2)cc1 (stereo not drawn) | -6.51%
O=C(Nc1cccc(CNCc2cccs2)c1)C1CCCC1 | -15%

Compound | cytotoxicity at 70.5 h
Cn1ncc2c(=O)[nH]c(CN3CCCC3Cc3ccccc3)nc21 (stereo not drawn) | -13.7%
Cn1ncc2c(=O)[nH]c(CN3CCC(Cc4ccccc4)CC3)nc21 | 34.8%
COc1cc(C(=O)N(Cc2cnn(C)c2)C(C)C)ccc1OCC(N)=O | 4.9%
CC(NC(=O)NCC1(c2ccc(F)cc2)CCC1)c1nncn1C (stereo not drawn) | -16.8%
CCc1ccc(S(=O)(=O)Nc2c(C)cccc2C(=O)O)s1 | 18.4%
Cc1cn2c(n1)CCC(NC(=O)CCC(F)(F)F)C2 (stereo not drawn) | -3.72%
CCCc1n[nH]c(C2CN(C(=O)c3cc(F)ccc3OC)CCO2)n1 (stereo not drawn) | -23.2%
Cc1ncc2c(n1)CCN(C(=O)Cc1c(C)noc1C)C2 | 22.9%
COCCN1CCC(NC(=O)C2(c3cc(C)cc(C)c3)CC2)CC1 | -11.3%
CCN1CCOC(CNCc2ccccc2OCC(=O)N(C)C)C1 (stereo not drawn) | -4.93%
COc1ccc(C(=O)N(Cc2cnn(C)c2)C(C)C)cc1Br | -9.53%
COc1ccc(C2=CCN(C(=O)C3CC(=O)N(C4CC4)C3)CC2)cc1 (stereo not drawn) | -12.9%
O=C(CN1CCCC1Cn1cncn1)NCCOc1cccc(F)c1 (stereo not drawn) | -14.6%
CCCc1n[nH]c(C2CN(C(=O)c3ccco3)CCO2)n1 (stereo not drawn) | -10.8%
CC(C)OCCC(=O)N(C)CCCc1cc(-c2ccccc2)no1 | 42.3%
Cc1ncsc1C(=O)NCCSCCCO | 9.95%
CC(=O)NCc1ccc(C(=O)N2CCCCC2Cn2cccn2)o1 (stereo not drawn) | 8.35%
Cc1csc(CNC(=O)N(C)Cc2cnn(C)c2)n1 | -15.5%
Cc1cc(C2CCCN2CC(=O)N(CCC#N)c2ccccc2F)on1 (stereo not drawn) | -12.2%
CN(CC(=O)N1CCC(Oc2ccccc2)CC1)c1cnccn1 | -13.9%
Cn1ccnc1CN1CCN(c2ccc(C#N)cn2)CC1 | -13.3%
Cn1ccnc1CN1CCN(c2ccc(C#N)cc2F)CC1 | -7.5%
Clc1cc(CN2CCCC2Cn2cncn2)c2ncccc2c1 (stereo not drawn) | -20.8%
Clc1ccc2cccnc2c1CN1CCCC(Cn2cncn2)C1 (stereo not drawn) | -14.3%

Compound | cytotoxicity at 70.5 h
CCCOc1cccc(CNC(=O)CN2CCN(C)CC2C)c1 (stereo not drawn) | -13.5%
CC(C)c1nc(C2CCCN2C(=O)c2cnc[nH]2)no1 (stereo not drawn) | 21.4%
CNc1nc(CNC(=O)Nc2cccc(-c3nnco3)c2)cs1 | -18.7%
CCOc1ccc(NC(=O)NCc2csc(NC)n2)cc1C | -5.86%
CN(CCC#N)C(=O)CN1CCCC1c1ccsc1 (stereo not drawn) | 22.4%
N#CCCN(C(=O)CN1CCCC1c1ccsc1)c1ccccc1F (stereo not drawn) | -14%
Cc1ccc(CC(=O)N2CCCC(c3cc(C)[nH]n3)C2)cn1 (stereo not drawn) | -7.57%
OCCn1cc(CN2CCN(CCOc3ccccc3F)CC2)cn1 | 16.6%
O=C(CN1CCOC(Cn2cccn2)C1)NCCc1ccc(F)cc1 (stereo not drawn) | -13.9%
CCc1nc(CN2CCCN(C(=O)c3cnc[nH]3)CC2)cs1 | -14.3%
Cc1ccc(CC(=O)N2CCCC(c3nc(C)cs3)C2)cn1 (stereo not drawn) | -17.4%
CCN(CC)Cc1ccc(C(=O)N2CCCCC2Cn2cccn2)o1 (stereo not drawn) | -13.1%
CC(=O)N(Cc1ncc(C(C)C)o1)C1CCN(Cc2nccn2C)C1 (stereo not drawn) | -0.826%
CC(=O)N(Cc1ncc(C(C)C)o1)C1CCN(CCn2cccn2)C1 (stereo not drawn) | 4.58%
CC(C)(C)c1nnc(CN2CCCC2c2noc(C3CC3)n2)o1 (stereo not drawn) | -8.8%
Cc1ncc2c(n1)CN(Cc1nnc(Cc3ccccc3)o1)CC2 | -3.37%
c1cnn(CC2CCCN2c2ncnc3ccsc23)c1 (stereo not drawn) | 10.7%
Cc1ccc(CNC(c2ccccc2)c2nccn2C)cc1C (stereo not drawn) | -7.63%
COc1ccc(-n2ccc(C(=O)N3CCC(C(N)=O)C3)n2)cc1 (stereo not drawn) | 23.5%
COc1c(CNCCNC(=O)c2ccco2)c(C)nn1C | -10.7%
CNC(=O)C1CCN(C(=O)CCn2cccn2)CC1 | 26.7%
O=C(Nc1cccc(CNCc2csc(Br)c2)c1)C1CC1 | 4.95%
